Source: ChEMBL document CHEMBL5291721, “A preclinical secondary pharmacology resource illuminates target-adverse drug reaction associations of marketed drugs” (Nat Commun, 2023)

How the values were obtained:
[1] = target: D(1A) dopamine receptor (Homo sapiens, UniProt P21728); type: functional, cell-based
[2] = target: Motilin receptor (Homo sapiens, UniProt O43193)
[3] = target: Delta-type opioid receptor (Homo sapiens, UniProt P41143)
[4] = target: Kappa-type opioid receptor (Homo sapiens, UniProt P41145)
Kappa-type opioid receptor, sequence (P41145 whole entry): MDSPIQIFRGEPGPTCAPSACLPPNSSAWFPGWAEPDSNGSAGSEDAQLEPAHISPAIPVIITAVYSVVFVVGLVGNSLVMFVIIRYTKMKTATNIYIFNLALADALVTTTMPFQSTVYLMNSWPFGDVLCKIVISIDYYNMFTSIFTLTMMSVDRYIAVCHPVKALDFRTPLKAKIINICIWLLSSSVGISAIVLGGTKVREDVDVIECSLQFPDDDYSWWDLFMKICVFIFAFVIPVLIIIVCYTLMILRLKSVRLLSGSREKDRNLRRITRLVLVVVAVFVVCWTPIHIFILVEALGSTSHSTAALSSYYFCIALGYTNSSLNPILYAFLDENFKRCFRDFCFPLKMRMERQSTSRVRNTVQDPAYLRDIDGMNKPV

[5] = target: T1, Progesterone receptor (Homo sapiens, UniProt P06401); type: functional
T1 sequence (P06401 whole entry): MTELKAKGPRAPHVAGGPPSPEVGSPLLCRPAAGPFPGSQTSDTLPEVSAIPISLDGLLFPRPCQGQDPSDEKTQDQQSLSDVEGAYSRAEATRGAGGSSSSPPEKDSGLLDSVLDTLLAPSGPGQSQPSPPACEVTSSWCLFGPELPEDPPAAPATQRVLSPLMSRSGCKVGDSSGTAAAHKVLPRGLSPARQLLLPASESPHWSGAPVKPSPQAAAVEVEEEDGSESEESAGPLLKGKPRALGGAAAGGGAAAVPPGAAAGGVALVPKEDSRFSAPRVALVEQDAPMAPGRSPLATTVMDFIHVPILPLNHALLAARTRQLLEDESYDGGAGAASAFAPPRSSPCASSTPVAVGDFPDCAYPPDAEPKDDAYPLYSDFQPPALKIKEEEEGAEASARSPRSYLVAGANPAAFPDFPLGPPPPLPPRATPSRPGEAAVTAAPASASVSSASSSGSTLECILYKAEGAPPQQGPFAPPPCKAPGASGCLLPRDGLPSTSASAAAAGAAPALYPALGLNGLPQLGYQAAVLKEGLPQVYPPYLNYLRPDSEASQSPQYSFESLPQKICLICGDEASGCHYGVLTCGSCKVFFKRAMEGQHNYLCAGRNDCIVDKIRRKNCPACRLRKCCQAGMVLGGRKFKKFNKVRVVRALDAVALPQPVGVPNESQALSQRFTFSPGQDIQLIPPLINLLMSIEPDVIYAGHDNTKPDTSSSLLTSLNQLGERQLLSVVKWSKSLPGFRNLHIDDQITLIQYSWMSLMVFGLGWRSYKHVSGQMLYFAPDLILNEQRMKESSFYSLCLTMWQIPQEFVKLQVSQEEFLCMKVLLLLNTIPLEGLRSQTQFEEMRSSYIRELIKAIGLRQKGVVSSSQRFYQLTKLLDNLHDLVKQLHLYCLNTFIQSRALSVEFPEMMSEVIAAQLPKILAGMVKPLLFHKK

[6] = target: T2, Prostaglandin G/H synthase 1 (Rattus norvegicus, UniProt Q63921); type: functional
T2 sequence (Q63921 whole entry): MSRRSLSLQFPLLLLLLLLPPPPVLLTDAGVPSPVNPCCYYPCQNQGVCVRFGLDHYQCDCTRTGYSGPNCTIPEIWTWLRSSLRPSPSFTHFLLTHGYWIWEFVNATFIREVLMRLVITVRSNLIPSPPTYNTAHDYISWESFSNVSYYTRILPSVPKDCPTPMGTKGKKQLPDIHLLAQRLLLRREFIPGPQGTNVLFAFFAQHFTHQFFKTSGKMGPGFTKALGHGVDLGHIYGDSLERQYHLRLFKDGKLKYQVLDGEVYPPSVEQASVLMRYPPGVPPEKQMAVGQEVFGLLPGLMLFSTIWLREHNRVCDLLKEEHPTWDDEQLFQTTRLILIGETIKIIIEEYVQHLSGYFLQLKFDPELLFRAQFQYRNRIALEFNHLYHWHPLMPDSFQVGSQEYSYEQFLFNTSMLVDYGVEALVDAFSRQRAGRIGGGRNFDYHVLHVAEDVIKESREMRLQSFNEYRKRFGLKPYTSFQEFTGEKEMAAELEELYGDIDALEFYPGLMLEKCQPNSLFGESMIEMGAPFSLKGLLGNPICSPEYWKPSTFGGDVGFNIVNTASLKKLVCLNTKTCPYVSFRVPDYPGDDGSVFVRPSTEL

[7] = target: Sodium-dependent noradrenaline transporter (Homo sapiens, UniProt P23975)
Sodium-dependent noradrenaline transporter, sequence (P23975 whole entry): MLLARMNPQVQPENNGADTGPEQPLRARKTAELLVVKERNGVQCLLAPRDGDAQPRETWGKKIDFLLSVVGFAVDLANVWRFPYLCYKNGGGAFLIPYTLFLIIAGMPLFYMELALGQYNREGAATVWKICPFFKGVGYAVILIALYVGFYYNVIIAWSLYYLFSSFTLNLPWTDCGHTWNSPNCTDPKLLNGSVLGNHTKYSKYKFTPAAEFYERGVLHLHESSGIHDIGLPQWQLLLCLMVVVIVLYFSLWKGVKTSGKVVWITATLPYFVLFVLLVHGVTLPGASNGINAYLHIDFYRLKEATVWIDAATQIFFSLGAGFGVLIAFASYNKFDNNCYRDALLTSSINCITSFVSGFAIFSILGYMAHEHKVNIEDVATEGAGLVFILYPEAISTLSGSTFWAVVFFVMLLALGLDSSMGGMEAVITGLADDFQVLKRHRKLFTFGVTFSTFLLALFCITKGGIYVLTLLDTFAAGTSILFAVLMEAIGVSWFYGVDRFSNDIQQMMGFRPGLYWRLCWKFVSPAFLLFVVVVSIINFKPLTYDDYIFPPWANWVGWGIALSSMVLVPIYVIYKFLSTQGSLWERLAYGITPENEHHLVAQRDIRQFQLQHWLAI

[8] = target: Gamma-aminobutyric acid receptor subunit alpha-1 (Rattus norvegicus, UniProt P62813); type: functional
Gamma-aminobutyric acid receptor subunit alpha-1, sequence (P62813 whole entry): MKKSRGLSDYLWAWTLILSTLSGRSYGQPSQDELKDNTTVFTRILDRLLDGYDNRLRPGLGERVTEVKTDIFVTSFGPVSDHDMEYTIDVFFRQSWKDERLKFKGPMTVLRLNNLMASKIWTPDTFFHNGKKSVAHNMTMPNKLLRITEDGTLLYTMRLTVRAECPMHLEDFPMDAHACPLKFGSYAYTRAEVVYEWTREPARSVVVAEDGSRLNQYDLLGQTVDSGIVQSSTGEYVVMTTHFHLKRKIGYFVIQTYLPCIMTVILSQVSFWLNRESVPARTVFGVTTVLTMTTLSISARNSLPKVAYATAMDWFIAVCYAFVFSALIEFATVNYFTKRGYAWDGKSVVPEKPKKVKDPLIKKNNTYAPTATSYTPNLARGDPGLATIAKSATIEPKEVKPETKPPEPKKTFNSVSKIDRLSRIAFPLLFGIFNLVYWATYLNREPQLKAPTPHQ

[9] = target: T3, Alpha-2C adrenergic receptor (Homo sapiens, UniProt P18825); type: functional
T3 sequence (P18825 whole entry): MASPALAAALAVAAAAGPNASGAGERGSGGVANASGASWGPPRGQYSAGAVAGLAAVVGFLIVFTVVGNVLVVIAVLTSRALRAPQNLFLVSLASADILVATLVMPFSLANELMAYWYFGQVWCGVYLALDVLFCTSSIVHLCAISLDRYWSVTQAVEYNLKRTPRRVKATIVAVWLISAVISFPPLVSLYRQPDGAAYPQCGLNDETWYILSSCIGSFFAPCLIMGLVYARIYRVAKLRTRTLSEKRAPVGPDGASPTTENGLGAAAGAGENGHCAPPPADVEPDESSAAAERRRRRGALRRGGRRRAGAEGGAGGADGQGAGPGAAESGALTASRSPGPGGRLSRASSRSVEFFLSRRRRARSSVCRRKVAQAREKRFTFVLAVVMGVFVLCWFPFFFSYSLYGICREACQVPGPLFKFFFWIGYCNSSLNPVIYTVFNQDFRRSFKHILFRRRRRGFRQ

[10] = target: Glutamate receptor ionotropic, NMDA 1 (Rattus norvegicus, UniProt P35439)
[11] = target: T4, Cholecystokinin receptor type A (Homo sapiens, UniProt P32238)
T4 sequence (P32238 whole entry): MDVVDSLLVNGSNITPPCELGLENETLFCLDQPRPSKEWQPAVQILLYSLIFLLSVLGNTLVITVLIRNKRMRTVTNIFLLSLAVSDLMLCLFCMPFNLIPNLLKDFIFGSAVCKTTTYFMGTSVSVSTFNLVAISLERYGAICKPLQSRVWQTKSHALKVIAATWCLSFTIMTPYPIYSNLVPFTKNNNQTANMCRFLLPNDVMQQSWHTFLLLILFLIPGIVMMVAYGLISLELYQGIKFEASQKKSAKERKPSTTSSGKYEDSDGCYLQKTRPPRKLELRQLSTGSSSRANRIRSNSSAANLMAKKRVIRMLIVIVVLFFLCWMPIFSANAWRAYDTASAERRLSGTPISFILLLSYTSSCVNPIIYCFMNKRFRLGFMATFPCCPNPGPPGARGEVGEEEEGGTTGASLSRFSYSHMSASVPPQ

[12] = target: Cannabinoid receptor 1 (Homo sapiens, UniProt P21554); type: functional, cell-based
Cannabinoid receptor 1, sequence (P21554 whole entry): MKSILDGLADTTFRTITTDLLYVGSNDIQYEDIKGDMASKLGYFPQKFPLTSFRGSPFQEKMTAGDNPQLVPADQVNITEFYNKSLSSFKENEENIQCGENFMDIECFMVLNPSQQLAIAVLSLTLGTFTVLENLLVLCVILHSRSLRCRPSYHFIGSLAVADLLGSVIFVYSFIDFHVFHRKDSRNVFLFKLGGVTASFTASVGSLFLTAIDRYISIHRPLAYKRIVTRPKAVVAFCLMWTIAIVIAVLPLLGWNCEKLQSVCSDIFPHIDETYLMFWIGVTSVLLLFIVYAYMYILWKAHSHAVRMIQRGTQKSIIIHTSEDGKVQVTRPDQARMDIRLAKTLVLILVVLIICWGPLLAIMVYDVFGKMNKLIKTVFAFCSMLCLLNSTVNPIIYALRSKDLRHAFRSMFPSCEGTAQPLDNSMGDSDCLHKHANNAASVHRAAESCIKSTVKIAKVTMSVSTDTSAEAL

Measured: AC50
Also: assay procedure not described here.

Delta-type opioid receptor, sequence (P41143 whole entry): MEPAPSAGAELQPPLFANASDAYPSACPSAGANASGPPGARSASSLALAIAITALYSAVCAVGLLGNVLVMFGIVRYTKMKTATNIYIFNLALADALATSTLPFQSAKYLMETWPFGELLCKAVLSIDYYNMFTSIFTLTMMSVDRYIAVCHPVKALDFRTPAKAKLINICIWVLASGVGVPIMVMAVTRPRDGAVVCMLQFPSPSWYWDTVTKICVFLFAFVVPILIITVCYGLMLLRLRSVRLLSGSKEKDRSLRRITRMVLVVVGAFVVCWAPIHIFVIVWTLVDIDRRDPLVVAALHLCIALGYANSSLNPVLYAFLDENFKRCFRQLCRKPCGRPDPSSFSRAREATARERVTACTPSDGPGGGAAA
D(1A) dopamine receptor, sequence (P21728 whole entry): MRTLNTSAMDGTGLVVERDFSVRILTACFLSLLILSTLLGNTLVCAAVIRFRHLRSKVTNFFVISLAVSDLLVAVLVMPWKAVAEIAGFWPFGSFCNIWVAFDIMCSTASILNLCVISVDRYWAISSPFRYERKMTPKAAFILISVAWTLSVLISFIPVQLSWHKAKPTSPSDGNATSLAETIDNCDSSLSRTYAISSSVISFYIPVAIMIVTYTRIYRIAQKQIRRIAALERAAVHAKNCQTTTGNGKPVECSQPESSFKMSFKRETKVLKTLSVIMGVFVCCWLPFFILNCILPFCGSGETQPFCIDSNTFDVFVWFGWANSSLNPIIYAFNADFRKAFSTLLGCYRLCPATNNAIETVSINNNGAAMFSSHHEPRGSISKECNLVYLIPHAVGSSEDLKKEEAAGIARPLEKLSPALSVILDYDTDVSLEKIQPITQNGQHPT
Motilin receptor, sequence (O43193 whole entry): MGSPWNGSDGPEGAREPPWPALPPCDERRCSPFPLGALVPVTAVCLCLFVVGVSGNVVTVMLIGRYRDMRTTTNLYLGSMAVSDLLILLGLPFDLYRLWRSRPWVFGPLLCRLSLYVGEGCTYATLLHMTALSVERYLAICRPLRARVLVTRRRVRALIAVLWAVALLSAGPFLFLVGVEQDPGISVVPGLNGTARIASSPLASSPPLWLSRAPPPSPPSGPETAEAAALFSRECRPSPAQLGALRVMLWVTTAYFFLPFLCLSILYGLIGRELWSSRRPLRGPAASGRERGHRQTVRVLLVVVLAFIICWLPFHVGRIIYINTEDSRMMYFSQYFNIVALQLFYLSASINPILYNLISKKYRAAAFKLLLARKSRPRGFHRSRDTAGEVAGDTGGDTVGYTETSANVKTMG

THIMEROSAL
> 100 µM: [1]

NC(=O)OCC(COC(N)=O)c1ccccc1 [FELBAMATE]
> 30 µM: [3]
not listed: [12]
> 10 µM: all other assays above

CC/C(=C(\c1ccccc1)c1ccc(OCCN(C)C)cc1)c1ccccc1 [TAMOXIFEN]
8.53 µM: [4]
> 10 µM: [8] | [9] | [10]
> 30 µM: [3]
8.83 µM: [7]

C[C@H]1COc2c(C3(N)CC3)c(F)cc3c(=O)c(C(=O)O)cn1c23 [PAZUFLOXACIN]
> 30 µM: [3] | [5] | [6]
not listed: [12]
> 10 µM: all other assays above

C#C[C@]1(O)CC[C@H]2[C@@H]3[C@H](C)CC4=C(CCC(=O)C4)[C@H]3CC[C@@]21C [TIBOLONE]
19 µM: [4]
30 µM: [8]
4.5 µM: [6]
not listed: [5]
> 30 µM: all other assays above

Cc1c(OCC(F)(F)F)ccnc1C[S+]([O-])c1nc2ccccc2[nH]1 (stereo not drawn) [LANSOPRAZOLE]
4.88 µM: [4]
> 30 µM: [12] | [6] | [11]
8.3 µM: [3]
not listed: [5]
> 10 µM: all other assays above

CC(CC1c2ccccc2CCc2ccccc21)CN(C)C (stereo not drawn) [BUTRIPTYLINE]
6.9 µM: [9]
> 30 µM: [4] | [12] | [1] | [8] | [10]

Cc1nnc2n1-c1ccc(Cl)cc1C(c1ccccc1Cl)=NC2 [TRIAZOLAM]
0.0011 µM: [8]
> 10 µM: [2] | [1] | [9] | [10]
not listed: [4] | [5]
> 30 µM: all other assays above

COc1ccc(CCNCC(O)COc2cccc(C)c2)cc1OC (stereo not drawn) [BEVANTOLOL]
> 30 µM: [3] | [1] | [7]
9.4 µM: [9]
not listed: [12]
> 10 µM: all other assays above
